Experimental data as given in patent publication US9949473B2, “Coagulation controlling agents and devices comprising the same” (Becton, Dickinson and Company, priority 2011, dated 2018).
Ends that are not written are not given here.

Experiments:
[1] = test system: freshly drawn human blood; test: Visual scoring of fibrin mass in serum from blood clotted in thrombin/protamine tubes; settings: protamine about 0.5 mg/mL; FIG. 2
Experimental: Protamine sulfate was first resuspended in about 0.5 M hydrochloric acid at a concentration of about 250 mg/mL. This solution was then titrated to a pH of about 6 with 5 N sodium hydroxide. This titration to about pH 6 was performed immediately since prolonged exposure of protamine to low pH, it was believed, would result in hydrolysis and loss of activity. It is also believed that more dilute solutions of hydrochloric acid could be used for preparing the protamine solution.
The protamine solution was then mixed in a ratio of about 1:1 with a solution of about 1250 U/mL of thrombin in about 40 mM sodium citrate at about pH 6.0, containing about 20 mg/mL of a siloxane alkoxylate surfactant, and 2 mg/mL polyvinylpyrrolidone (PVP).
The resulting reagent was filtered and sprayed in 20 μL shots into 13×100 mm polyethyleneterephthalate (PET) tubes. The tubes were then dried by forced hot air, and evacuated and stoppered.
Tubes were filled with freshly drawn human blood and allowed to clot for between about 1 to about 3.5 minutes (randomized) and then centrifuged. The resulting serum was scored by visual assessment for the presence of a “fibrin mass” in the serum compartment on a scale of 0 to 3, with 3 being the most severe.

thrombin [2] = molecular target: T1, thrombin (Homo sapiens, UniProt P00734); test: Accelerated stability of sprayed thrombin with protamine (thrombin activity on Stago Compact); type: biochemical; settings: about 45% relative humidity
T1 construct: In preferred embodiments, thrombin is alpha-thrombin
Experimental: A mixture of thrombin (about 1250 U/mL), protamine (about 125 mg/mL or about 62.5 mg/mL), and a siloxane alkoxylate surfactant was prepared in about 20 mM citrate at a pH of about 6.0. About 20 μL of this mixture was sprayed into 13×100 mm PET tubes. The tubes were dried by forced hot air, evacuated, and stored in the refrigerator. At the initiation of the study, the tubes were uncapped and placed in a controlled environmental chamber previously equilibrated to about 50° C. and about 45% relative humidity. At various time intervals, tubes were removed and evaluated for thrombin activity on the Stago Compact coagulation analyzer. The error bars indicate the 95% confidence interval for the thrombin activity with 5 replicates.
When the thrombin activity of subsequent time points were normalized on the initial value, the resulting curves could be used to compare the relative stability of each formulation (see FIG. 5).

[3] = test system: reconstituted commercial lyophilized human plasma; test: Clotting time of plasma with thrombin/protamine solutions on Stago Compact coagulation analyzer; type: biochemical; settings: thrombin and protamine in about 20 mM citrate pH about 6, mixed about 1:1 with plasma; FIG. 3
Experimental: Solutions of thrombin and protamine in about 20 mM of citrate at a pH of about 6 were mixed in a ratio of about 1:1 with reconstituted commercial lyophilized human plasma and tested on a Stago Compact coagulation analyzer. The resulting clotting times were measured as a function of thrombin and protamine concentration for a given thrombin concentration. The concentrations listed on the graph of FIG. 3 represent the thrombin/protamine solutions before being mixed with the plasma.

thrombin [4] = molecular target: T1, thrombin; test: Accelerated stability of sprayed thrombin with para-aminobenzamidine (thrombin activity on Stago Compact); type: biochemical; settings: para-aminobenzamidine about 3 mM in about 5 mM citrate or isocitrate pH about 6.1; sealed tubes at about 43° C., about 75% relative humidity; compared to citrates alone; FIG. 6, FIG. 7
Experimental: The coagulation controlling agent para-aminobenzamidine was evaluated to determine if it improved the stability of sprayed thrombin under accelerated stability conditions. Without wishing to be bound by any particular theory, it is believed that para-aminobenzamidine stabilizes the spray-dried thrombin under conditions of extremely high humidity, where thrombin autolytic degradation can be rapid, even at room temperature.
Thrombin was prepared in about 5 mM citrate or isocitrate at a pH of about 6.1. Para-aminobenzamidine was added at a concentration of about 3 mM. About 16 μL of this solution was sprayed into 13×100 mm PET tubes. The tubes were dried by forced hot air, and evacuated. Sealed tubes were then placed in a controlled environmental chamber previously equilibrated to about 43° C. and about 75% relative humidity. At various time intervals, the tubes were removed and evaluated for thrombin activity on the Stago Compact coagulation analyzer. The error bars indicate the 95% confidence interval for the thrombin activity with 5 replicates.

With “Protamine sulfate (PRRRRSSSRPVRRRRRPRVSRRRRRRGGRRRR; also: sulfate salt) [coagulation controlling agent; ID; NO; 1 in some embodiments]” the “performance of the tube (fibrin mass formation)” value [1] was “improved the performance of the tube dramatically”, the “relative stability (thrombin activity normalized on the initial value)” value (thrombin [2]; about 50° C., compared with thrombin formulations without protamine, FIG. 5) was “more stable” and the “thrombin activity over time” value (thrombin [2]; thrombin about 1250 U/mL, protamine about 125 or about 62.5 mg/mL, sprayed and dried in PET tubes, uncapped at about 50° C., FIG. 4) was “better with the protamine than without it”. For the same compound, the “clotting time as a function of protamine concentration” value [3] was “decreasing clotting time with increasing protamine concentration”.

For N=C(N)c1ccc(N)cc1 [para-aminobenzamidine], the “thrombin stability over time” value (thrombin [4]) was “preserves thrombin stability over time”.
